Test results taken from PubChem BioAssay (NCI).
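GI50 = concentration required for 50% inhibition of growth. At the TGI there is no net growth.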

Columns and labels:
Assay in all cases: DTP human tumour cell line panel, 384-well format
786-0 renal = tested on: 786-0 renal
A498 renal = tested on: A498 renal
A549 NSCLC = tested on: A549 NSCLC
ACHN renal = tested on: ACHN renal
BT-549 breast = tested on: BT-549 breast
CAKI-1 renal = tested on: CAKI-1 renal
COLO 205 colon = tested on: COLO 205 colon
DU-145 prostate = tested on: DU-145 prostate
EKVX NSCLC = tested on: EKVX NSCLC
HCC-2998 colon = tested on: HCC-2998 colon
HCT-116 colon = tested on: HCT-116 colon
HCT-15 colon = tested on: HCT-15 colon
HL-60(TB) leukemia = tested on: HL-60(TB) leukemia
HOP-62 NSCLC = tested on: HOP-62 NSCLC
HOP-92 NSCLC = tested on: HOP-92 NSCLC
HS 578T breast = tested on: HS 578T breast
HT29 colon = tested on: HT29 colon
IGROV1 ovarian = tested on: IGROV1 ovarian
KM12 colon = tested on: KM12 colon
LOX IMVI melanoma = tested on: LOX IMVI melanoma
M14 melanoma = tested on: M14 melanoma
MALME-3M melanoma = tested on: MALME-3M melanoma
MCF7 breast = tested on: MCF7 breast
MDA-MB-231 breast = tested on: MDA-MB-231 breast
MDA-MB-435 melanoma = tested on: MDA-MB-435 melanoma
MDA-MB-468 breast = tested on: MDA-MB-468 breast
MOLT-4 leukemia = tested on: MOLT-4 leukemia
NCI-H226 lung = tested on: NCI-H226 lung
NCI-H23 lung = tested on: NCI-H23 lung
NCI-H322M lung = tested on: NCI-H322M lung
NCI-H460 NSCLC = tested on: NCI-H460 NSCLC
NCI-H522 lung = tested on: NCI-H522 lung
NCI/ADR-RES ovarian = tested on: NCI/ADR-RES ovarian
OVCAR-3 ovarian = tested on: OVCAR-3 ovarian
OVCAR-4 ovarian = tested on: OVCAR-4 ovarian
OVCAR-5 ovarian = tested on: OVCAR-5 ovarian
OVCAR-8 ovarian = tested on: OVCAR-8 ovarian
PC-3 prostate = tested on: PC-3 prostate
RPMI-8226 leukemia = tested on: RPMI-8226 leukemia
RXF 393 renal = tested on: RXF 393 renal
SF-268 CNS = tested on: SF-268 CNS
SF-295 CNS = tested on: SF-295 CNS
SF-539 CNS = tested on: SF-539 CNS
SK-MEL-28 melanoma = tested on: SK-MEL-28 melanoma
SK-MEL-5 melanoma = tested on: SK-MEL-5 melanoma
SK-OV-3 ovarian = tested on: SK-OV-3 ovarian
SN12C renal = tested on: SN12C renal
SNB-19 CNS = tested on: SNB-19 CNS
SNB-75 CNS = tested on: SNB-75 CNS
SR leukemia = tested on: SR leukemia
SW-620 colon = tested on: SW-620 colon
T-47D breast = tested on: T-47D breast
TK-10 renal = tested on: TK-10 renal
U251 glioblastoma = tested on: U251 glioblastoma
UACC-257 melanoma = tested on: UACC-257 melanoma
UACC-62 melanoma = tested on: UACC-62 melanoma
UO-31 renal = tested on: UO-31 renal

COc1nc(N)nc2c1ncn2[C@@H]1O[C@H](CO)[C@@H](O)[C@@H]1O
GI50 (786-0 renal): > 100 µM
TGI (786-0 renal): > 100 µM
GI50 (A498 renal): > 100 µM
TGI (A498 renal): > 100 µM
GI50 (A549 NSCLC): > 100 µM
TGI (A549 NSCLC): > 100 µM
GI50 (ACHN renal): > 100 µM
TGI (ACHN renal): > 100 µM
GI50 (BT-549 breast): > 100 µM
TGI (BT-549 breast): > 100 µM
GI50 (CAKI-1 renal): > 100 µM
TGI (CAKI-1 renal): > 100 µM
GI50 (COLO 205 colon): > 100 µM
TGI (COLO 205 colon): > 100 µM
GI50 (DU-145 prostate): > 100 µM
TGI (DU-145 prostate): > 100 µM
GI50 (EKVX NSCLC): > 100 µM
TGI (EKVX NSCLC): > 100 µM
GI50 (HCC-2998 colon): > 100 µM
TGI (HCC-2998 colon): > 100 µM
GI50 (HCT-116 colon): > 100 µM
TGI (HCT-116 colon): > 100 µM
GI50 (HCT-15 colon): > 100 µM
TGI (HCT-15 colon): > 100 µM
GI50 (HL-60(TB) leukemia): > 100 µM
TGI (HL-60(TB) leukemia): > 100 µM
GI50 (HOP-62 NSCLC): > 100 µM
TGI (HOP-62 NSCLC): > 100 µM
GI50 (HOP-92 NSCLC): > 100 µM
TGI (HOP-92 NSCLC): > 100 µM
GI50 (HS 578T breast): > 100 µM
TGI (HS 578T breast): > 100 µM
GI50 (HT29 colon): > 100 µM
TGI (HT29 colon): > 100 µM
GI50 (IGROV1 ovarian): > 100 µM
TGI (IGROV1 ovarian): > 100 µM
GI50 (KM12 colon): > 100 µM
TGI (KM12 colon): > 100 µM
GI50 (LOX IMVI melanoma): > 100 µM
TGI (LOX IMVI melanoma): > 100 µM
GI50 (M14 melanoma): > 100 µM
TGI (M14 melanoma): > 100 µM
GI50 (MALME-3M melanoma): > 100 µM
TGI (MALME-3M melanoma): > 100 µM
GI50 (MCF7 breast): > 100 µM
TGI (MCF7 breast): > 100 µM
GI50 (MDA-MB-231 breast): > 100 µM
TGI (MDA-MB-231 breast): > 100 µM
GI50 (MDA-MB-435 melanoma): > 100 µM
TGI (MDA-MB-435 melanoma): > 100 µM
GI50 (MDA-MB-468 breast): > 100 µM
TGI (MDA-MB-468 breast): > 100 µM
GI50 (MOLT-4 leukemia): 1.31 µM
TGI (MOLT-4 leukemia): 2.59 µM
GI50 (NCI-H226 lung): > 100 µM
TGI (NCI-H226 lung): > 100 µM
GI50 (NCI-H23 lung): > 100 µM
TGI (NCI-H23 lung): > 100 µM
GI50 (NCI-H322M lung): > 100 µM
TGI (NCI-H322M lung): > 100 µM
GI50 (NCI-H460 NSCLC): > 100 µM
TGI (NCI-H460 NSCLC): > 100 µM
GI50 (NCI-H522 lung): > 100 µM
TGI (NCI-H522 lung): > 100 µM
GI50 (NCI/ADR-RES ovarian): > 100 µM
TGI (NCI/ADR-RES ovarian): > 100 µM
GI50 (OVCAR-3 ovarian): > 100 µM
TGI (OVCAR-3 ovarian): > 100 µM
GI50 (OVCAR-4 ovarian): > 100 µM
TGI (OVCAR-4 ovarian): > 100 µM
GI50 (OVCAR-5 ovarian): > 100 µM
TGI (OVCAR-5 ovarian): > 100 µM
GI50 (OVCAR-8 ovarian): > 100 µM
TGI (OVCAR-8 ovarian): > 100 µM
GI50 (PC-3 prostate): > 100 µM
TGI (PC-3 prostate): > 100 µM
GI50 (RPMI-8226 leukemia): > 100 µM
TGI (RPMI-8226 leukemia): > 100 µM
GI50 (RXF 393 renal): > 100 µM
TGI (RXF 393 renal): > 100 µM
GI50 (SF-268 CNS): > 100 µM
TGI (SF-268 CNS): > 100 µM
GI50 (SF-295 CNS): > 100 µM
TGI (SF-295 CNS): > 100 µM
GI50 (SF-539 CNS): > 100 µM
TGI (SF-539 CNS): > 100 µM
GI50 (SK-MEL-28 melanoma): > 100 µM
TGI (SK-MEL-28 melanoma): > 100 µM
GI50 (SK-MEL-5 melanoma): > 100 µM
TGI (SK-MEL-5 melanoma): > 100 µM
GI50 (SK-OV-3 ovarian): > 100 µM
TGI (SK-OV-3 ovarian): > 100 µM
GI50 (SN12C renal): > 100 µM
TGI (SN12C renal): > 100 µM
GI50 (SNB-19 CNS): > 100 µM
TGI (SNB-19 CNS): > 100 µM
GI50 (SNB-75 CNS): > 100 µM
TGI (SNB-75 CNS): > 100 µM
GI50 (SR leukemia): > 100 µM
TGI (SR leukemia): > 100 µM
GI50 (SW-620 colon): > 100 µM
TGI (SW-620 colon): > 100 µM
GI50 (T-47D breast): > 100 µM
TGI (T-47D breast): > 100 µM
GI50 (TK-10 renal): > 100 µM
TGI (TK-10 renal): > 100 µM
GI50 (U251 glioblastoma): > 100 µM
TGI (U251 glioblastoma): > 100 µM
GI50 (UACC-257 melanoma): > 100 µM
TGI (UACC-257 melanoma): > 100 µM
GI50 (UACC-62 melanoma): > 100 µM
TGI (UACC-62 melanoma): > 100 µM
GI50 (UO-31 renal): > 100 µM
TGI (UO-31 renal): > 100 µM
